Experimental data: patent US20200077655A1, “Use of an Acyclic Picolinamide Compound as a Fungicide for Control of Phytopathogenic Fungi in Orchard, Vineyard and Plantation Crops” (Dow AgroSciences LLC, priority 2017, published 2020)

What was measured:
Assay type in all cases: in vivo
[1] = test system: Mycosphaerella fijiensis (MYCOFI); experiment: Field assessment of black sigatoka on banana; settings: bananas; for Area Under Disease Progression Curve (AUDPC) from severity assessments: 52-59 days after application; for Percent control calculated from severity percentage: 52 days after application
Description: Aliquots of a 5% EC formulation of compound I were diluted with water and mixed with Spraytex CT mineral oil (6 L CP/Ha) to achieve active ingredient rates of 25, 50, 100 and 150 g ai/Ha. These treatments were delivered to the foliar affected area of single leaves (application volume of 40 L/Ha) by means of an Aerograph spayer through a plastic molding with an application area of 9×12 centimeters. A single application was delivered to leaf 1 (preventive and very early curative), and leaf 3 (curative effect). Experimental design was based on a randomized complete block, and 4 replications. MYCOFI symptoms resulted from natural inoculation and epidemic development.
Percent disease control was calculated using the ratio of disease severity on treated leaves relative to untreated leaves. Black sigatoka infection was assessed five times during the trial: 31 days after application (31DAA), 38DAA, 45DAA, 52DAA and 59DAA. Area under the disease progress curve (AUDPC) was calculated for each plot using the sets of recorded severity data. Relative AUDPC (% control based on AUDPC) was calculated as percent of the nontreated control.

Alternaria mali (ALTEMA) = experiment: Field assessment of leaf spot of apple, protectant and curative trials
Description: Assessment of compound I on leaf spot of apple (ALTEMA), in both protectant and curative fashion, was performed in two separate field trials. For the protectant trial, a fungicidal treatment containing a 10% SC formulation of Compound I, either alone or with an adjuvant (Agnique BP420, 50% w/w at 0.3% v/v; or ETHOMEEN T18H, 50% w/w at 0.2% v/v), was sprayed on the plant canopy of apple trees (Hongxing variety) six times during the growing season of apples with each application coming at 15 day intervals. Formulations of Compound I, with or without adjuvants, were applied at rates of 100, 125 and 150 grams of active ingredient per hectare (g ai/ha) and were applied at water volume of 4500 L/ha. The experimental plots were inoculated three times with the leaf spot pathogen, the first inoculation performed at 2 days after the first application (Application A, 2DAAA), with the following applications at 2DAAC and 2DAAD. The treatment was part of an experimental trial designed as a randomized complete block with three replications and a plot size of 3 trees.
For the curative trial, a fungicidal treatment containing a 10% SC formulation of Compound I, either alone or with an adjuvant (Agnique BP420, 50% w/w at 0.3% v/v; or ETHOMEEN T18H, 50% w/w at 0.2% v/v), was sprayed on the plant canopy of apple trees (Hongxing variety) six times during the growing season of apples with each application coming at 15 day intervals. Formulations of Compound I, with or without adjuvants, were applied at rates of 100, 125 and 150 grams of active ingredient per hectare (g ai/ha) and were applied at water volume of 4500 L/ha. The experimental plots were inoculated three times with the leaf spot pathogen, the first inoculation performed at 5 days before the first application. The second inoculation was at 5 days before the third application and the third inoculation coming at 5 days before the fourth application. The treatment was part of an experimental trial designed as a randomized complete block with three replications and a plot size of 3 trees.
Disease incidence was assessed as percentage of diseased foliage per plant. Apple leaf spot infection was assessed six times, with the last assessment coming at 90 days after the first application. Area under the disease progress curve (AUDPC) was calculated for each plot using the sets of recorded visual infection data. Relative AUDPC (% control based on AUDPC) was calculated as percent of the nontreated control.

[2] = test system: Monilinia fructicola (MONIFC); experiment: Field microplot assessment on brown rot on peaches; settings: field grown peaches, 17 days after first application
Description: A field trial assessing the utility of Compound I on rot diseases of stone fruits was also done on peaches using a microplot method, part of an experimental trial designed as a randomized complete block with four replications. In a microplot method, two mature fruits on a single branch or cluster of fruits were selected for each replication (for a total of 10 replications) instead of using an entire replication. Colored flagging identified treatments. One day before the first application, a ZipLoc plastic bag was placed over the fruit or fruit cluster and an inoculation mix of MONIFC was sprayed inside covering the fruits. The plastic bags were removed after 24 hours. After 24 hr, fungicidal treatments containing Compound I, applied in a 5% EC formulation and tank mixed with an adjuvant (Trycol, 50% w/w at 0.2% v/v), were then sprayed twice on peaches (PRNPS) at rates of 50, 100, and 150 grams of active ingredient per hectare (g ai/ha). The applications to the selected mature peaches were done at 14 and 7 days before harvest using a CO2 powered inoculation spray gun at a water volume of 500 L/ha. At harvest, the fruits were collected in the field and placed in plastic Tupperware containers. 150 mL of de-ionized water was poured in the bottom of the Tupperware containers and the fruits were sprayed with a light mist of water. The containers were brought to the lab, enclosed in a large trash bag to keep the humidity high, and incubated on a lab bench at approximately 23° C. The percentage of visual disease incidence and severity was assessed during the trial at 17 days after the first application.

[3] = 100 g ai/ha, adjuvant ETHOMEEN, 10% SC
[4] = 100 g ai/ha, adjuvant None, 10% SC
[5] = 125 g ai/ha, adjuvant Agnique BP420, 10% SC
[6] = 125 g ai/ha, adjuvant ETHOMEEN, 10% SC
[7] = 150 g ai/ha, adjuvant ETHOMEEN, 10% SC

COc1ccnc(C(=O)N[C@@H](C)C(=O)O[C@@H](C)C(c2ccc(F)cc2)c2ccc(F)cc2)c1OC(C)=O [Compound I, (S)-1,1-bis(4-fluorophenyl)propan-2-yl (3-acetoxy-4-methoxypicolinoyl)-L-alaninate]
Area Under Disease Progression Curve (AUDPC) from severity assessments ([1]; Leaf 1 (Preventive), 25 g ai/ha, untreated 665): 198 | Percent control calculated from severity percentage ([1]; Leaf 1 (Preventive), 25 g ai/ha): B (51-75) | Area Under Disease Progression Curve (AUDPC) from severity assessments ([1]; Leaf 1 (Preventive), 50 g ai/ha, untreated 665): 211 | Percent control calculated from severity percentage ([1]; Leaf 1 (Preventive), 50 g ai/ha): B (51-75) | Area Under Disease Progression Curve (AUDPC) from severity assessments ([1]; Leaf 1 (Preventive), 100 g ai/ha, untreated 665): 203 | Percent control calculated from severity percentage ([1]; Leaf 1 (Preventive), 100 g ai/ha): B (51-75) | Area Under Disease Progression Curve (AUDPC) from severity assessments ([1]; Leaf 1 (Preventive), 150 g ai/ha, untreated 665): 183 | Percent control calculated from severity percentage ([1]; Leaf 1 (Preventive), 150 g ai/ha): B (51-75) | Area Under Disease Progression Curve (AUDPC) from severity assessments ([1]; Leaf 3 (Curative), 25 g ai/ha, untreated 464): 357 | Percent control calculated from severity percentage ([1]; Leaf 3 (Curative), 25 g ai/ha): C (26-50) | Area Under Disease Progression Curve (AUDPC) from severity assessments ([1]; Leaf 3 (Curative), 50 g ai/ha, untreated 464): 317 | Percent control calculated from severity percentage ([1]; Leaf 3 (Curative), 50 g ai/ha): C (26-50) | Area Under Disease Progression Curve (AUDPC) from severity assessments ([1]; Leaf 3 (Curative), 100 g ai/ha, untreated 464): 289 | Percent control calculated from severity percentage ([1]; Leaf 3 (Curative), 100 g ai/ha): C (26-50) | Area Under Disease Progression Curve (AUDPC) from severity assessments ([1]; Leaf 3 (Curative), 150 g ai/ha, untreated 464): 293 | Percent control calculated from severity percentage ([1]; Leaf 3 (Curative), 150 g ai/ha): C (26-50) | % Control Curative (AUDPC, leaf infection) (Alternaria mali (ALTEMA); [3]): A (76-100) | % Control Protectant (AUDPC, leaf infection) (Alternaria mali (ALTEMA); [3]): A (76-100) | % Control Curative (AUDPC, leaf infection) (Alternaria mali (ALTEMA); [4]): B (51-75) | % Control Protectant (AUDPC, leaf infection) (Alternaria mali (ALTEMA); [4]): B (51-75) | % Control Curative (AUDPC, leaf infection) (Alternaria mali (ALTEMA); [5]): A (76-100) | % Control Protectant (AUDPC, leaf infection) (Alternaria mali (ALTEMA); [5]): A (76-100) | % Control Curative (AUDPC, leaf infection) (Alternaria mali (ALTEMA); [6]): A (76-100) | % Control Protectant (AUDPC, leaf infection) (Alternaria mali (ALTEMA); [6]): A (76-100) | % Control Curative (AUDPC, leaf infection) (Alternaria mali (ALTEMA); [7]): A (76-100) | % Control Protectant (AUDPC, leaf infection) (Alternaria mali (ALTEMA); [7]): A (76-100) | MONIFC, percentage of area affected on peaches (Severity) ([2]; 50 g ai/ha): 87.3% | MONIFC, percentage of area affected on peaches (Severity) ([2]; 100 g ai/ha): 57.0% | MONIFC, percentage of area affected on peaches (Severity) ([2]; 150 g ai/ha): 69.5%
